# Data published in paper PMC7235904, “Is Blood a Good Indicator for Detecting Antimicrobials in Meat? Evidence for the Development of In Vivo Surveillance Methods” (Antibiotics, 2020).
# “Also recorded” adds a separate entry of the source.
# Assay: Relationship between concentrations detected in paired blood and muscle samples
# Assay type: in vivo, pigs
# Details: paired pig blood and muscle samples
# Experimental: After administration, animals were slaughtered at preset intervals within the withdrawal period in order to obtain samples containing different antimicrobial concentrations above and below the MRLs for muscle. Figure S1 indicates the slaughter days and the withdrawal periods set by the manufacturer for each antimicrobial compound administered. Between one and three piglets were slaughtered on the same day post-administration. The day of slaughter was calculated from the first day after the last antimicrobial treatment dose. […] Apart from samples containing antimicrobial compounds administered in vivo, and as a part of the sample bank, 15 of the 93 piglets were slaughtered after the acclimatization period and before treatment onset. Animals were stunned and slaughtered following the guidelines established by European Council Regulation (EC) No. 1099/2009 [39] regarding the protection of animals at the time of slaughter or killing. A penetrative captive bolt gun was used to stun the pigs, positioning it firmly against the skin, in the middle of the forehead, 2 cm above the line of the eyes, aiming towards the tail. […]
# Data were analyzed and submitted to comparison of averages via ANOVA, followed by a post-hoc Tukey test and t-tests with GraphPad PRISM. […]
structure (smiles),measurement,value
"COc1ccc(NS(=O)(=O)c2ccc(N)cc2)nn1 [Sulfamethoxypyridazine, sulfamethoxypyridazine]",Concentration in blood compared to muscle,three times higher in blood; also recorded: around three times higher
